Test results published in ChEMBL document CHEMBL1201862, “PubChem BioAssay data set” (2004).
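Five concentrations, 48 hours, 96-well plates. Abbreviation: GI50, concentration required for 50% inhibition of growth.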 Activity calls are given as the source filed them. Rule as the data show it: active = GI50 up to about 1.1 µM and inactive = higher.

Assays:
Test in all cases: NCI tumour cell line growth inhibition, 48 h
OVCAR-3 = tested on: OVCAR-3
786-0 = tested on: 786-0
ACHN = tested on: ACHN
HOP-92 = tested on: HOP-92
SF-539 = tested on: SF-539
TK-10 = tested on: TK-10
UACC-257 = tested on: UACC-257
SK-MEL-28 = tested on: SK-MEL-28
HL-60 = tested on: HL-60
NCI-H460 = tested on: NCI-H460
IGROV-1 = tested on: IGROV-1
NCI-H23 = tested on: NCI-H23
CAKI-1 = tested on: CAKI-1
DU-145 = tested on: DU-145
SK-MEL-2 = tested on: SK-MEL-2
HCT-116 = tested on: HCT-116
MCF7 = tested on: MCF7
SW-620 = tested on: SW-620
HOP-62 = tested on: HOP-62
OVCAR-5 = tested on: OVCAR-5
HCT-15 = tested on: HCT-15
M14 = tested on: M14
MDA-MB-231 = tested on: MDA-MB-231
KM12 = tested on: KM12
T47D = tested on: T47D
A549 = tested on: A549
SR = tested on: SR
BT-549 = tested on: BT-549
UO-31 = tested on: UO-31
HCC 2998 = tested on: HCC 2998
MDA-MB-435 = tested on: MDA-MB-435
K562 = tested on: K562
SNB-19 = tested on: SNB-19
COLO 205 = tested on: COLO 205
A498 = tested on: A498
OVCAR-8 = tested on: OVCAR-8
LOX IMVI = tested on: LOX IMVI
SK-MEL-5 = tested on: SK-MEL-5
EKVX = tested on: EKVX
U-251 = tested on: U-251
CCRF-CEM = tested on: CCRF-CEM
SF-268 = tested on: SF-268
HT-29 = tested on: HT-29
RPMI-8226 = tested on: RPMI-8226
NCI/ADR-RES = tested on: NCI/ADR-RES
SK-OV-3 = tested on: SK-OV-3
Hs-578T = tested on: Hs-578T
NCI-H522 = tested on: NCI-H522
UACC-62 = tested on: UACC-62
RXF 393 = tested on: RXF 393
Malme-3M = tested on: Malme-3M
SF-295 = tested on: SF-295
PC-3 = tested on: PC-3
MOLT-4 = tested on: MOLT-4
MDA-N = tested on: MDA-N
NCI-H226 = tested on: NCI-H226
SN12C = tested on: SN12C
OVCAR-4 = tested on: OVCAR-4
SNB-75 = tested on: SNB-75

COc1cc(Nc2nc3ccccc3n3cccc23)cc(OC)c1OC
GI50 (OVCAR-3): > 100 µM (inactive)
GI50 (786-0): 94.8 µM (inactive)
GI50 (ACHN): > 100 µM (inactive)
GI50 (HOP-92): 44.2 µM (inactive)
GI50 (SF-539): > 100 µM (inactive)
GI50 (TK-10): 36.3 µM (inactive)
GI50 (UACC-257): > 100 µM (inactive)
GI50 (SK-MEL-28): > 100 µM (inactive)
GI50 (HL-60): 47.8 µM (inactive)
GI50 (NCI-H460): > 100 µM (inactive)
GI50 (IGROV-1): 54.7 µM (inactive)
GI50 (NCI-H23): 73.8 µM (inactive)
GI50 (CAKI-1): > 100 µM (inactive)
GI50 (DU-145): > 100 µM (inactive)
GI50 (SK-MEL-2): 52.5 µM (inactive)
GI50 (HCT-116): > 100 µM (inactive)
GI50 (MCF7): > 100 µM (inactive)
GI50 (SW-620): > 100 µM (inactive)
GI50 (HOP-62): 19.1 µM (inactive)
GI50 (OVCAR-5): > 100 µM (inactive)
GI50 (HCT-15): > 100 µM
GI50 (M14): > 100 µM (inactive)
GI50 (MDA-MB-231): 27.1 µM (inactive)
GI50 (KM12): > 100 µM (inactive)
GI50 (T47D): 0.276 µM (active)
GI50 (A549): > 100 µM (inactive)
GI50 (SR): > 100 µM (inactive)
GI50 (BT-549): 68.9 µM (inactive)
GI50 (UO-31): > 100 µM (inactive)
GI50 (HCC 2998): > 100 µM (inactive)
GI50 (MDA-MB-435): > 100 µM (inactive)
GI50 (K562): > 100 µM (inactive)
GI50 (SNB-19): 98.2 µM (inactive)
GI50 (COLO 205): > 100 µM (inactive)
GI50 (A498): > 100 µM (inactive)
GI50 (OVCAR-8): 20.3 µM (inactive)
GI50 (LOX IMVI): > 100 µM (inactive)
GI50 (SK-MEL-5): > 100 µM (inactive)
GI50 (EKVX): > 100 µM (inactive)
GI50 (U-251): 47.8 µM (inactive)
GI50 (CCRF-CEM): > 100 µM (inactive)
GI50 (SF-268): 28.5 µM (inactive)
GI50 (HT-29): > 100 µM (inactive)
GI50 (RPMI-8226): > 100 µM (inactive)
GI50 (NCI/ADR-RES): > 100 µM (inactive)
GI50 (SK-OV-3): 37.3 µM (inactive)
GI50 (Hs-578T): 64.4 µM (inactive)
GI50 (NCI-H522): > 100 µM (inactive)
GI50 (UACC-62): > 100 µM (inactive)
GI50 (RXF 393): 17.5 µM (inactive)
GI50 (Malme-3M): > 100 µM (inactive)
GI50 (SF-295): 63.5 µM (inactive)
GI50 (PC-3): > 100 µM (inactive)
GI50 (MOLT-4): > 100 µM (inactive)

COC(=N)CCCl
GI50 (OVCAR-3): > 100 µM (inactive)
GI50 (786-0): > 100 µM (inactive)
GI50 (ACHN): > 100 µM (inactive)
GI50 (HOP-92): > 100 µM (inactive)
GI50 (SF-539): > 100 µM (inactive)
GI50 (TK-10): > 100 µM (inactive)
GI50 (UACC-257): > 100 µM (inactive)
GI50 (SK-MEL-28): > 100 µM (inactive)
GI50 (HL-60): > 100 µM (inactive)
GI50 (MDA-N): > 100 µM (inactive)
GI50 (NCI-H460): > 100 µM (inactive)
GI50 (IGROV-1): > 100 µM (inactive)
GI50 (NCI-H226): > 100 µM (inactive)
GI50 (NCI-H23): > 100 µM (inactive)
GI50 (CAKI-1): > 100 µM (inactive)
GI50 (DU-145): > 100 µM (inactive)
GI50 (HCT-116): > 100 µM (inactive)
GI50 (MCF7): > 100 µM (inactive)
GI50 (SW-620): > 100 µM (inactive)
GI50 (HOP-62): > 100 µM (inactive)
GI50 (OVCAR-5): > 100 µM (inactive)
GI50 (HCT-15): > 100 µM
GI50 (M14): > 100 µM (inactive)
GI50 (KM12): > 100 µM (inactive)
GI50 (A549): > 100 µM (inactive)
GI50 (SR): > 100 µM (inactive)
GI50 (BT-549): > 100 µM (inactive)
GI50 (UO-31): > 100 µM (inactive)
GI50 (HCC 2998): > 100 µM (inactive)
GI50 (K562): > 100 µM (inactive)
GI50 (SNB-19): > 100 µM (inactive)
GI50 (COLO 205): > 100 µM (inactive)
GI50 (SN12C): > 100 µM (inactive)
GI50 (OVCAR-8): > 100 µM (inactive)
GI50 (SK-MEL-5): > 100 µM (inactive)
GI50 (EKVX): > 100 µM (inactive)
GI50 (OVCAR-4): > 100 µM (inactive)
GI50 (U-251): > 100 µM (inactive)
GI50 (CCRF-CEM): > 100 µM (inactive)
GI50 (SF-268): > 100 µM (inactive)
GI50 (HT-29): > 100 µM (inactive)
GI50 (RPMI-8226): > 100 µM (inactive)
GI50 (NCI/ADR-RES): > 100 µM (inactive)
GI50 (SNB-75): 83.2 µM (inactive)
GI50 (SK-OV-3): > 100 µM (inactive)
GI50 (NCI-H522): 99.1 µM (inactive)
GI50 (UACC-62): > 100 µM (inactive)
GI50 (RXF 393): > 100 µM (inactive)
GI50 (Malme-3M): > 100 µM (inactive)
GI50 (SF-295): > 100 µM (inactive)
GI50 (PC-3): > 100 µM (inactive)
GI50 (MOLT-4): > 100 µM (inactive)
